According to PMC7092840 (Biochemical Pharmacology, 2011):
Read-outs that look alike come from different tables or passages of the source. Marks after values point to notes of the source that are not given here.

Assays:
[1] = Aqueous solubility of hydrochloride salt; assay type: physicochemical; settings: for solubility: phosphate buffer; for solubility / Aqueous solubility of hydrochloride salt At pH 5.0 / Aqueous solubility of hydrochloride salt At pH 7.4: 22 °C; for Aqueous solubility of hydrochloride salt At pH 5.0: 5 mM K2PO4 adjusted to pH 5.0, methanol as cosolvent; for Aqueous solubility of hydrochloride salt At pH 7.4: 5 mM K2PO4 adjusted to pH 7.4, methanol as cosolvent; for pKa × solubility in water at pH 5.0: product of calculated pKa and solubility at pH 5.0
[2] = test system: BHK cells; assay: Distribution of LBPA-positive structures, confocal morphometry; assay type: cell-based; settings: 16 h; for LBPA-positive structures Diameter / LBPA-positive structures N°/cell profile: BHK cells, 10 μM analogue, M ± SE; for LBPA-positive structures Diameter: control 1.46 ± 0.02; for LBPA-positive structures N°/cell profile: control 28.6 ± 1.1
[3] = test system: Vero cells; assay type: cell-based
[4] = test system: BHK cells; assay: Cell cholesterol content; settings: 10 μM, 16 h, p = 0.03, N = 5
[5] = test system: feline immunodeficiency virus (FIV) VLP budding from 293T cells; assay type: cell-based
[6] = test system: blood monocytes; assay: Transferrin recycling; assay type: cell-based; settings: human monocytes, 10 μM
[7] = test system: K562 cells; assay: Exosome release; settings: 10 μM, 16 h, N = 7, change not significant
[8] = test system: early endosomes from BHK cells
[9] = test system: HIV-1 VLP budding from 293T cells; assay type: cell-based, human immunodeficiency virus type 1
[10] = test system: BHK cells; assay: Cell viability / tolerated concentration; assay type: cell-based
[11] = ref http://www.patentstorm.us/patents/6939865/description.html; cited from earlier work
[12] = ref [27]; cited from earlier work
[13] = 10 μM, 5 independent experiments, p < 0.01

Row | SMILES | Aqueous solubility of hydrochloride salt At pH 5.0 [1] | Aqueous solubility of hydrochloride salt At pH 7.4 [1] | pKa × solubility in water at pH 5.0 [1] | LBPA-positive structures Diameter [2] [μm] | LBPA-positive structures N°/cell profile [2] | other results
1 | CCCCc1oc2ccccc2c1C(=O)c1cc(I)c(OCCNCC)c(I)c1 [MDEA, 2-n-butyl-3-(3,5-diiodo-4-ethylaminoethoxybenzoyl)-benzofuran, reference compound] | – | – | – | – | – | solubility ([1]; pH 5): 12 µM; solubility ([1]; pH 7.4): 0.11 µM
2 | CCCCc1oc2ccccc2c1C(=O)c1cc(I)c(OCCN2CCCCC2)c(I)c1.Cl [PIPAM, 4-(2-butyl-benzofuran-3-yl)-[3,5-diiodophenyl-4-(2-piperidinoethoxy)phenyl] methanone·hydrochloride] | 2.22 ^b μM | 0.023 ^b μM | 11.88 | 1.73 ± 0.03 | 14.7 ± 2.1 | –
3 | CCCCc1oc2ccccc2c1C(=O)c1cc(I)c(OCCN(CC)CC)c(I)c1 [AMI, Amiodarone] | – | – | – | 2.01 ± 0.03 | 5.2 ± 0.4 | effect on activity of Shiga toxin [3]: not decreased; increase in cell cholesterol [4]: 17.3 ± 5.2%; release of mature VLPs (FIV) [5]: did not inhibit the release of mature VLPs; effect on transferrin recycling [6]: no effect; decrease in secreted acetylcholinesterase with respect to control cells [7]: 12.0 ± 8.7%; change in endosome-associated fluorescence [8]: no change; release of mature VLPs (HIV-1) [9]: did not inhibit the release of mature VLPs; decrease in number of LBPA-rich structures per cell profile [2, 13]: 69.0 ± 4.5%; increase in diameter of LBPA-rich structures [2, 13]: 42.6 ± 5.2%
4 | CCCCc1oc2ccccc2c1C(=O)c1cc(I)c(OCCN2CCOCC2)c(I)c1 [MOPAM, 2-n-butyl-3-(3,5-diiodo-4-β-Nmorpholinoethoxybenzoyl)benzofuran] | 0.17 ^b μM | 0.015 ^b μM | 0.55 | 1.45 ± 0.02 | 29.3 ± 0.6 | –
5 | CCCCc1oc2ccccc2c1C(=O)c1cc(I)c(OCCN(C(C)C)C(C)C)c(I)c1.Cl [DIPAM, (2-butyl-benzofuran-3-yl)-4-[2-(diisopropylamino)ethoxy]-3,5-diiodophenyl-methanone·hydrochloride] | 0.23 ^b μM | 0.014 ^b μM | 2.07 | 1.64 ± 0.04 | 24.6 ± 3.0 | –
6 | CCCCc1oc2ccc(NS(C)(=O)=O)cc2c1C(=O)c1ccc(OCCCN(CCCC)CCCC)cc1 [DRO, Dronedarone] | – | – | – | – | – | highest concentration tolerated by transfected cells ([10]; BHK cells transiently transfected with pEGFP-LC3, 16 h): 2 µM; concentration toxic to cells ([10]; BHK cells, 16 h): > 5 µM; Aqueous solubility of hydrochloride salt At pH 7.4 [11]: <0.001 ^c μM; serum levels, times lower than in patients treated with amiodarone [12]: over 10 times
7 | CCCCc1oc2ccccc2c1C(=O)c1cc(I)c(OCCN(C)C)c(I)c1 [MeAMI, (2-butyl-benzofuran-3-yl)-4-[2-(dimethylamino-ethoxy)-3,5-diiodophenyl]methanone] | 2.21 ^b μM | 0.051 ^b μM | 17.50 | 2.45 ± 0.08 | 4.5 ± 0.6 | –
8 | CCCCc1oc2ccccc2c1C(=O)c1cc(I)c(OCCN2CCCC2)c(I)c1.Cl [PYRAM, 4-(2-butyl-benzofuran-3-yl)-[3,5-diiodophenyl-4-(2-pyrrolidin-1-yl-ethoxy)phenyl]-methanone·hydrochloride] | 1.86 ^b μM | 0.049 ^b μM | 9.22 | 2.08 ± 0.05 | 7.6 ± 0.6 | –
